Data as given in PubChem BioAssay (NCI).
Where “and” joins values, the source holds several entries; their conditions need not be identical. Equal entries are not always repeated.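 Grown in 96-well plates, cells were treated for 48 hours with each compound at five concentrations. Insufficient inhibition: endpoint recorded as highest concentration tested. GI50 is the concentration that inhibits growth by half. The concentration for full growth arrest is given as TGI.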

Columns and labels:
Assay in all cases: inhibition of tumour cell growth, NCI panel, 48 h
786-0 renal = tested on: 786-0 renal
ACHN renal = tested on: ACHN renal
HCT-15 colon = tested on: HCT-15 colon
IGROV1 ovarian = tested on: IGROV1 ovarian
RPMI-8226 leukemia = tested on: RPMI-8226 leukemia
SF-539 CNS = tested on: SF-539 CNS
SK-MEL-5 melanoma = tested on: SK-MEL-5 melanoma
SNB-19 CNS = tested on: SNB-19 CNS
SW-620 colon = tested on: SW-620 colon
UACC-257 melanoma = tested on: UACC-257 melanoma

Compound | GI50 (786-0 renal) | TGI (786-0 renal) | GI50 (ACHN renal) | TGI (ACHN renal) [µM] | GI50 (HCT-15 colon) | TGI (HCT-15 colon) | TGI (IGROV1 ovarian) [µM] | GI50 (RPMI-8226 leukemia) | TGI (RPMI-8226 leukemia) | GI50 (SF-539 CNS) | TGI (SF-539 CNS) | GI50 (SK-MEL-5 melanoma) | TGI (SK-MEL-5 melanoma) | GI50 (SNB-19 CNS) | TGI (SNB-19 CNS) [µM] | GI50 (SW-620 colon) | TGI (SW-620 colon) [µM] | GI50 (UACC-257 melanoma) | TGI (UACC-257 melanoma) [µM] | GI50 (IGROV1 ovarian)
CC(=O)NC(CS)C(=O)O (stereo unspecified) | > 100 µM | > 100 µM and 58100 µM | > 100 µM | > 100 | > 100 µM | > 100 µM and 47600 µM | 16600 | > 100 µM | > 100 µM and 3720 µM | > 100 µM | > 100 µM | > 100 µM | > 100 µM and 66800 µM | > 100 µM | > 100 | > 100 µM | > 100 | > 100 µM | > 100 | –
CN(C)c1ccc(/C=C(\C#N)c2ccccc2)cc1 | 0.56 µM and 0.763 µM and 0.437 µM | > 100 µM and 58.6 µM and 30.2 µM | 0.901 µM and 0.688 µM and 1.37 µM | > 100 | 0.3 µM and 0.348 µM and 0.383 µM | > 100 µM | > 100 | 0.288 µM and 0.648 µM | – | 0.324 µM and 0.481 µM | 1.34 µM and 4.48 µM | 0.398 µM and 0.45 µM and 0.345 µM | 26.3 µM and 18 µM and 17.8 µM | 0.481 µM and 0.68 µM and 0.92 µM | > 100 | 0.28 µM and 0.447 µM and 0.444 µM | > 100 | 44.7 µM and 57.4 µM | > 100 | 0.599 µM and 1.81 µM
Cn1cnc([N+](=O)[O-])c1Sc1nc2ccccc2o1 | – | 29.3 µM | – | 24.9 | – | 11.2 µM | 27.7 | – | 22.5 µM | – | 24.1 µM | – | 26.5 µM | – | 30.9 | – | 14.3 | – | 19.8 | –
Cc1cncc(-c2nc(NCCc3c[nH]c4ccccc34)c3ncn(C(C)C)c3n2)c1 | 2.01 µM | 6.01 µM | 3.76 µM | 13.5 | 1.67 µM | 3.82 µM | 22.1 | 2.28 µM | 5.23 µM | 3.64 µM | 12.4 µM | 4.23 µM | 15.5 µM | 11.5 µM | 46.6 | 3.48 µM | 15.1 | 1.91 µM | 3.85 | 5.94 µM
N#CC(C#N)=Cc1ccc(C(O)P(=O)(O)O)cc1 (stereo unspecified) | – | > 100 µM | – | > 100 | – | > 100 µM | > 100 | – | > 100 µM | – | > 100 µM | – | > 100 µM | – | > 100 | – | > 100 | – | > 100 | –
Cc1cc(O[C@@H]2O[C@@H](C)[C@H](O)[C@@H](O)[C@H]2O)c2c3c(c(O[C@@H]4O[C@@H](C)[C@H](O)[C@@H](O)[C@H]4O)cc2c1)C(=O)c1c(O)cccc1C3=O | > 30 µM | > 30 µM | > 30 µM | > 30 | > 30 µM | > 30 µM | > 30 | > 30 µM | > 30 µM | > 30 µM | > 30 µM | > 30 µM | > 30 µM | > 30 µM | > 30 | > 30 µM | > 30 | > 30 µM | > 30 | > 30 µM
CCCCOC(=O)/C=C\C(=O)NC(N)=O | 20.1 µM | 53.1 µM | 15.3 µM | 30.3 | 15.6 µM | 38.3 µM | 54.3 | 7.88 µM | 28.9 µM | 24.6 µM | 70 µM | 24.3 µM | 71.4 µM | 41.2 µM | > 100 | 14.5 µM | 32.3 | 21 µM | 56.7 | 20.4 µM
CN1C(c2ccccc2)CC(C)(O)CC1c1ccccc1 (stereo unspecified) | – | > 100 µM | – | > 100 | – | > 100 µM | > 100 | – | > 100 µM | – | > 100 µM | – | > 100 µM | – | > 100 | – | > 100 | – | > 100 | –
O=C(Nc1ccc(Oc2ccc(NC(=O)Nc3ccccc3Cl)cc2)cc1)Nc1ccccc1Cl | 22.6 µM | > 69.2 µM | > 22.2 µM | > 100 | 0.677 µM | > 100 µM | 14.8 | 1.19 µM | 15.7 µM | 6 µM | 22.1 µM | – | > 100 µM | 17 µM | 43.8 | 10.6 µM | > 100 | – | > 28.2 | 3.57 µM
Cc1ccc(/C=C(/C#N)n2nnc3ncccc32)cc1 | 2.99 µM | 16.4 µM | 2.66 µM | 13.4 | 1.45 µM | 16.7 µM | 21.5 | 3 µM | 9.73 µM | 2.47 µM | 9.61 µM | 2.89 µM | 12.8 µM | 3.43 µM | 16.8 | 1.2 µM | 12 | 4.24 µM | 22.2 | 2.28 µM
CC12CC/C(=N/NC(N)=O)C3C1CCCC32 | – | > 100 µM | – | > 100 | – | > 100 µM | > 100 | – | > 100 µM | – | > 100 µM | – | > 100 µM | – | > 100 | – | > 100 | – | > 100 | –
CS(=O)(=O)c1ccc2c(c1)C(=O)c1c-2n(CCCBr)c(=O)c2cc([N+](=O)[O-])ccc12 | 6.07 µM | > 100 µM | 4.98 µM | > 100 | 48.9 µM | > 100 µM | > 100 | 1.68 µM | 42.8 µM | 24 µM | > 100 µM | 1.91 µM | 15.8 µM | 6.03 µM | > 100 | 0.683 µM | > 100 | 43.7 µM | > 100 | 13.6 µM
CCC1(OC(=O)CNC)C(=O)OCc2c1cc1n(c2=O)Cc2cc3ccccc3nc2-1 (stereo unspecified) | – | 0.0152 µM | – | 0.0184 | – | > 100 µM | 2.21 | – | 0.415 µM | – | < 0.0203 µM | – | 0.0337 µM | – | 6.12 | – | 19.5 | – | 0.762 | –
CC(C)(C)[Si](C)(C)OC1[C@@H](O[Si](C)(C)C(C)(C)C)[C@@H](CNC(=O)NC(=O)NC(=O)CCl)O[C@H]1n1cnc2c(NC(=O)Nc3ccccc3)ncnc21 (stereo partly specified) | 1.3 µM | 4.76 µM | 5.03 µM | 12.2 | 9.28 µM | 22.2 µM | 1.33 | 1.56 µM | 5.95 µM | 8.82 µM | 16.1 µM | 8.21 µM | 15 µM | 15.7 µM | 48.6 | 3.52 µM | 11.6 | 5.64 µM | 13.2 | 0.361 µM
